Read-outs that look alike come from different tables or passages of the source.
Assays:
trachea ciliate cells = assay: Ciliary motility in the dog's trachea in vitro (transit speed of a charcoal bolus); assay type: cell-based; conditions: for SPEED OF CHARCOAL PARTICLES 5 Minutes mm/min. x̄ ± ES / SPEED OF CHARCOAL PARTICLES 10 Minutes mm/min x̄ ± ES / SPEED OF CHARCOAL PARTICLES 20 Minutes mm/min. x̄ ± ES / activation at 100 µg/mL: 10^-4 g/ml; for activation at 100 µg/mL: Canis lupus familiaris; for SPEED OF CHARCOAL PARTICLES Basal mm/min. x̄ ± ES: group later treated with 10^-4 g/ml
Source text: The mucolytic activity of many products is due in that they induce an increase of motility in the trachea ciliate cells.
The method hereinafter described allows to assess "in vitro" if a compound increases, or not, the motility of said cells. The method is based on the measurement of the transit speed of a charcoal bolus in a section of trachea.
The method used is that described by J.E. Lightowler and N.H. Lightowler (Arch. Int. Pharmacodyn. 189, 53-58, 1971) and uses an apparatus similar to that described by T. Dalhamn (Acta Physiol. Scand. Suppl. 123, 1956).

[1] = system: chronic bronchitis induced by inhalation of SO in the rat; assay: Chronic bronchitis induced by SO2 inhalation; assay type: in vivo; conditions: 50 mg/kg by gastric tube
Source text: The action of PU 163 in comparison with Ambroxol on the chronic bronchitis induced by inhalation of SO in the rat has been evaluated according to the method described by Quevauvillier e coll. (Therapie, XXII; 185-193; 1967). […] The efficacy of […] been evaluated in function of the regression degree of the pulmonary lesions induced by […] inhalation.

[2] = Acute toxicity, oral route, method of Litchfield and Wilcoxon; conditions: in vivo, os
Source text: The acute toxicity of PU 163 has been determined in the mouse and in the rat by the oral route accor ding to the method of Litchfield and Wilcoxon (J. Pharm. Exp. Therap. 1949, 96, 99).

alveolar surfactant = assay: Activity on the alveolar surfactant (static volume-pulmonary pressure curves); assay type: in vivo; conditions: rat, 50 mg/kg p.o.
Procedure: This test allow to verify if a compound can modi fy the surfaces of lung alveoli, as there are pathological conditions in which a superficial firm is produced in the alveoli which, as time goes on, can produce foam in the bronchi, making the respiration difficult. In order to assess this kind of activity, the method described by Curty P.C. (Arzneim. Forsch. Drug. Res., 24, 847, 1974) is used. According to said method the volume and the pressure after insufflation in the rat's lung, are measured. […] After sacrifice, and after the trachea incan nulation, the respiratory apparatus has been extracted from the thoracic cavity and the static cur ves of volume-pulmonary pressure.

rat = assay: Bronchosecretogogue activity (Mawatari test, bronchial elimination of sodium fluorescein); assay type: in vivo; conditions: 50 mg/kg i.p. (table head; text: oral route), percent increase of bronchial elimination
Source text: The bronchosecretogogue activity of PU 163 and, as a comparison, of Ambroxol has been determined in the rat using the method described by Mawatari ("Experimental Studies on the Expectorant Action of Several Drugs", Kagoshima Daigaku Igaku Zasshi, 27, 561, 1976). […] After the animals'sacrifice, the evaluation of the amound of sodium fluorescein present at the bronchial level has been carried out. The results obtained, reported in the Table 3, are expressed as percent increase of the bronchial elimination of sodium fluorescein of the groups treated with Ambroxol and PU 163 in comparison with a control group.

elastase = assay: Elastase inhibition (method of R.M. Senior); assay type: biochemical
Source text: The inhibiting activity of PU 163 and of Ambroxol on elastase has been measured according to the method described by R.M. Senior (Plenum Press. New York; 249-254; 1977).

[3] = Pharmacokinetics and organ distribution by HPLC; assay type: in vivo; conditions: rat, oral route, equimolar dose corresponding to 50 mg/kg of Ambroxol base
Procedure: The pharmacokynetics behaviour and the distribu tion in the organs of PU 163, in comparison to Ambroxol, has been determined in the rat after ad ministration by the oral route of equimolar doses, corresponding to 50 mg/kg of Ambroxol base.

[4] = system: pulmonary emphysema induced in the guinea pig; assay: Pulmonary emphysema induced by intratracheal porcine pancreatic elastase; assay type: in vivo; conditions: 50 mg/kg i.p. 1 hour after the elastase injection
Procedure: The ability of PU 163 of antagonizing the pulmonary emphysema induced in the guinea pig by intratracheal injection of 0.1 mg of porcine pancrea tic elastase has been evaluated in comparison with Ambroxol, according to the method described by Stone P.J. et al. (Am. Rev. Resp. Dis. 124/1, 56-59; 1981). Both compounds have been administered by the i.p. route at the equiponderant dose of 50 mg/kg 1 hour after the elastase injection.

[5] = 5 min, 5 minutes, read-out: SPEED OF CHARCOAL PARTICLES 5 Minutes % Δ vs.Bas. x̄ ± ES
[6] = 10 min, 10 minutes, * p <0.05, read-out: SPEED OF CHARCOAL PARTICLES 10 Minutes % Δ vs.Bas. x̄ ± ES
[7] = 20 min, 20 minutes, ** p <0.01, read-out: SPEED OF CHARCOAL PARTICLES 20 Minutes % Δ vs.Bas. x̄ ± ES

## Nc1c(Br)cc(Br)cc1CN[C@H]1CC[C@H](O)CC1 [Ambroxol, 4-/ /(2-amino-3,5-dibromophenyl)-methyl/amino/cyclohexanol, reference compound]
Trachea ciliate cells; 5 minutes
  SPEED OF CHARCOAL PARTICLES 5 Minutes mm/min. x̄ ± ES: 8.2 ±2.12 mm/min.
Trachea ciliate cells; 10 minutes
  SPEED OF CHARCOAL PARTICLES 10 Minutes mm/min x̄ ± ES: 9.5 ±1.62 mm/min
Trachea ciliate cells; 20 minutes
  SPEED OF CHARCOAL PARTICLES 20 Minutes mm/min. x̄ ± ES: 10.2 ±2.31 mm/min.
Trachea ciliate cells; [5]
  activation at 100 µg/mL: 28.1 ± 3.54%
Trachea ciliate cells; [6]
  activation at 100 µg/mL: 57.6%
Trachea ciliate cells; [7]
  activation at 100 µg/mL: 59.4%
Trachea ciliate cells
  SPEED OF CHARCOAL PARTICLES Basal mm/min. x̄ ± ES: 6.4 ±1.30 mm/min.
[1]
  percent regression (lesions degrees): 38%
[2]; mouse
  LD50: > 2500 mg/kg
[2]; rat
  LD50: > 5000 mg/kg
Alveolar surfactant; de-insufflation, 0.5 cm^3
  Internal pulmonary pressure (cm. H2O): 0.25 cm. H2O
Alveolar surfactant; de-insufflation, 1 cm^3
  Internal pulmonary pressure (cm. H2O): 1.1 cm. H2O
Alveolar surfactant; de-insufflation, 1.5 cm^3
  Internal pulmonary pressure (cm. H2O): 2.3 cm. H2O
Alveolar surfactant; de-insufflation, 2 cm^3
  Internal pulmonary pressure (cm. H2O): 3.3 cm. H2O
Alveolar surfactant; de-insufflation, 2.5 cm^3
  Internal pulmonary pressure (cm. H2O): 4.6 cm. H2O
Alveolar surfactant; de-insufflation, 3 cm^3
  Internal pulmonary pressure (cm. H2O): 6.1 cm. H2O
Alveolar surfactant; insufflation, 0.5 cm^3
  Internal pulmonary pressure (cm. H2O): 2.45 cm. H2O
Alveolar surfactant; insufflation, 1 cm^3
  Internal pulmonary pressure (cm. H2O): 4.1 cm. H2O
Alveolar surfactant; insufflation, 1.5 cm^3
  Internal pulmonary pressure (cm. H2O): 5.6 cm. H2O
Alveolar surfactant; insufflation, 2 cm^3
  Internal pulmonary pressure (cm. H2O): 6.9 cm. H2O
Alveolar surfactant; insufflation, 2.5 cm^3
  Internal pulmonary pressure (cm. H2O): 7.9 cm. H2O
Alveolar surfactant; insufflation, 3 cm^3
  Internal pulmonary pressure (cm. H2O): 8.7 cm. H2O
Alveolar surfactant; insufflation, 3.5 cm^3
  Internal pulmonary pressure (cm. H2O): 9.3 cm. H2O
rat
  SODIUM FLUORESCEIN % vs. control: 32.1%
elastase
  inhibiting activity on elastase: practically inactive

## O=C(Nc1c(Br)cc(Br)cc1CN[C@H]1CC[C@H](O)CC1)c1cccs1 [PU 163, 4-/ /(2-(2-thenoyl)-amino-3,5-dibromophenyl)-methyl/amino/cy-clohexanol]
Trachea ciliate cells; 5 minutes
  SPEED OF CHARCOAL PARTICLES 5 Minutes mm/min. x̄ ± ES: 8.7 ±2.82 mm/min.
Trachea ciliate cells; 10 minutes
  SPEED OF CHARCOAL PARTICLES 10 Minutes mm/min x̄ ± ES: 10.2 ±2.02 mm/min
Trachea ciliate cells; 20 minutes
  SPEED OF CHARCOAL PARTICLES 20 Minutes mm/min. x̄ ± ES: 11.5 ±2.38 mm/min.
Trachea ciliate cells; [5]
  activation at 100 µg/mL: 24.3 ± 7.8%
Trachea ciliate cells; [6]
  activation at 100 µg/mL: 45.7%
Trachea ciliate cells; [7]
  activation at 100 µg/mL: 64.3%
Trachea ciliate cells
  SPEED OF CHARCOAL PARTICLES Basal mm/min. x̄ ± ES: 7.00 ±1.40 mm/min.
[3]
  concentrations in the organs (pulmonary level): larger amounts of Ambroxol at the pulmonary level
[3]; compared with Ambroxol treated group
  plasma concentrations as Ambroxol: detected at prolonged times
[1]
  percent regression (lesions degrees): 62%
[2]; mouse
  LD50: > 2500 mg/kg
[2]; rat
  LD50: > 5000 mg/kg
Alveolar surfactant; de-insufflation, 0.5 cm^3
  Internal pulmonary pressure (cm. H2O): 0.35 cm. H2O
Alveolar surfactant; de-insufflation, 1 cm^3
  Internal pulmonary pressure (cm. H2O): 1.4 cm. H2O
Alveolar surfactant; de-insufflation, 1.5 cm^3
  Internal pulmonary pressure (cm. H2O): 2.5 cm. H2O
Alveolar surfactant; de-insufflation, 2 cm^3
  Internal pulmonary pressure (cm. H2O): 3.9 cm. H2O
Alveolar surfactant; de-insufflation, 2.5 cm^3
  Internal pulmonary pressure (cm. H2O): 5.2 cm. H2O
Alveolar surfactant; de-insufflation, 3 cm^3
  Internal pulmonary pressure (cm. H2O): 6.75 cm. H2O
Alveolar surfactant; insufflation, 0.5 cm^3
  Internal pulmonary pressure (cm. H2O): 2.2 cm. H2O
Alveolar surfactant; insufflation, 1 cm^3
  Internal pulmonary pressure (cm. H2O): 3.8 cm. H2O
Alveolar surfactant; insufflation, 1.5 cm^3
  Internal pulmonary pressure (cm. H2O): 5.35 cm. H2O
Alveolar surfactant; insufflation, 2 cm^3
  Internal pulmonary pressure (cm. H2O): 6.5 cm. H2O
Alveolar surfactant; insufflation, 2.5 cm^3
  Internal pulmonary pressure (cm. H2O): 7.6 cm. H2O
Alveolar surfactant; insufflation, 3 cm^3
  Internal pulmonary pressure (cm. H2O): 8.45 cm. H2O
Alveolar surfactant; insufflation, 3.5 cm^3
  Internal pulmonary pressure (cm. H2O): 9 cm. H2O
[4]
  activity of reducing emphysema: high activity of reducing emphysema
rat
  SODIUM FLUORESCEIN % vs. control: 39.3%

Reference: patent EP0150787A2, “Compound having antibronchopneumopathic activity, process for its preparation and pharmaceutical compositions containing it” (PULITZER ITALIANA S.p.A., priority 1984, dated 1985)
